Data: the supplement of paper PMC10307832

Key:
Experiment in all cases: relative viability (nuclei count vs DMSO), 5 days (fraction); higher = more cells survive
[1] = tested on: A-427
Outline: (§1)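 Cells from lung cancer lines were seeded into 1536-well plates and, one day later, dosed by pin tool. Treatments were either a single drug or a fixed dose of an anchor drug with five library-drug doses (not always all listed) in √10 steps. After 5 days, nuclei were stained in a one-step fixation (final 0.05% Triton X-100, 1% formaldehyde, 1 ug/ml Hoechst) and counted on 4× images, and relative viability is the treated-to-vehicle nuclei ratio, as the median of duplicate plates.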

[2] = tested on: BEN
Outline: as §1

[3] = tested on: ChaGo-K-1
Outline: as §1

[4] = tested on: EKVX
Outline: as §1

[5] = tested on: LK-2
Outline: as §1

[6] = tested on: NCI-H1650
Outline: as §1

[7] = tested on: NCI-H1755
Outline: as §1

[8] = tested on: NCI-H2085
Outline: as §1

[9] = tested on: NCI-H2228
Outline: as §1

[10] = tested on: NCI-H2347
Outline: as §1

[11] = tested on: NCI-H3122
Outline: as §1

[12] = tested on: NCI-H322M
Outline: as §1

[13] = tested on: NCI-H358
Outline: as §1

[14] = tested on: NCI-H460
Outline: as §1

[15] = tested on: NCI-H520
Outline: as §1

[16] = tested on: NCI-H650
Outline: as §1

[17] = tested on: NCI-H727
Outline: as §1

[18] = tested on: NCI-H838
Outline: as §1

[19] = tested on: SW 1573
Outline: as §1

[20] = tested on: SW 900
Outline: as §1

## COCC1(CO)C(=O)C2CCN1CC2 (centres undefined) [PRIMA-1MET] + CC(=O)c1c(C)c2cnc(Nc3ccc(N4CCNCC4)cn3)nc2n(C2CCCC2)c1=O [Palbociclib] (partner 0.5 µM)
[1]; first compound 0.2 µM
  relative viability: 0.574
[1]; first compound 0.6325 µM
  relative viability: 0.523
[1]; first compound 2 µM
  relative viability: 0.576
[1]; first compound 6.325 µM
  relative viability: 0.49
[1]; first compound 20 µM
  relative viability: 0.525
[2]; first compound 0.2 µM
  relative viability: 0.46
[2]; first compound 0.6325 µM
  relative viability: 0.463
[2]; first compound 6.325 µM
  relative viability: 0.463
[2]; first compound 20 µM
  relative viability: 0.437
[3]; first compound 0.2 µM
  relative viability: 0.989
[3]; first compound 0.6325 µM
  relative viability: 0.897
[3]; first compound 2 µM
  relative viability: 0.917
[3]; first compound 6.325 µM
  relative viability: 0.906
[3]; first compound 20 µM
  relative viability: 0.836
[4]; first compound 0.2 µM
  relative viability: 0.42
[4]; first compound 2 µM
  relative viability: 0.346
[4]; first compound 6.325 µM
  relative viability: 0.368
[4]; first compound 20 µM
  relative viability: 0.321
[5]; first compound 0.2 µM
  relative viability: 0.814
[5]; first compound 0.6325 µM
  relative viability: 0.705
[5]; first compound 2 µM
  relative viability: 0.534
[5]; first compound 6.325 µM
  relative viability: 0.211
[5]; first compound 20 µM
  relative viability: 0.0375
[6]; first compound 0.2 µM
  relative viability: 0.322
[6]; first compound 0.6325 µM
  relative viability: 0.331
[6]; first compound 2 µM
  relative viability: 0.317
[6]; first compound 6.325 µM
  relative viability: 0.315
[6]; first compound 20 µM
  relative viability: 0.0802
[7]; first compound 0.2 µM
  relative viability: 0.479
[7]; first compound 0.6325 µM
  relative viability: 0.397
[7]; first compound 2 µM
  relative viability: 0.43
[7]; first compound 6.325 µM
  relative viability: 0.482
[7]; first compound 20 µM
  relative viability: 0.459
[8]; first compound 0.2 µM
  relative viability: 0.526
[8]; first compound 0.6325 µM
  relative viability: 0.515
[8]; first compound 2 µM
  relative viability: 0.475
[8]; first compound 6.325 µM
  relative viability: 0.472
[8]; first compound 20 µM
  relative viability: 0.166
[9]; first compound 0.2 µM
  relative viability: 0.631
[9]; first compound 0.6325 µM
  relative viability: 0.778
[9]; first compound 2 µM
  relative viability: 0.742
[9]; first compound 6.325 µM
  relative viability: 0.402
[9]; first compound 20 µM
  relative viability: 0.0392
[10]; first compound 0.2 µM
  relative viability: 0.451
[10]; first compound 0.6325 µM
  relative viability: 0.317
[10]; first compound 2 µM
  relative viability: 0.365
[10]; first compound 6.325 µM
  relative viability: 0.42
[10]; first compound 20 µM
  relative viability: 0.313
[11]; first compound 0.2 µM
  relative viability: 0.21
[11]; first compound 0.6325 µM
  relative viability: 0.167
[11]; first compound 2 µM
  relative viability: 0.184
[11]; first compound 6.325 µM
  relative viability: 0.2
[11]; first compound 20 µM
  relative viability: 0.201
[12]; first compound 0.2 µM
  relative viability: 0.535
[12]; first compound 0.6325 µM
  relative viability: 0.515
[12]; first compound 6.325 µM
  relative viability: 0.525
[12]; first compound 20 µM
  relative viability: 0.34
[13]; first compound 0.2 µM
  relative viability: 0.148
[13]; first compound 0.6325 µM
  relative viability: 0.154
[13]; first compound 2 µM
  relative viability: 0.115
[13]; first compound 6.325 µM
  relative viability: 0.137
[13]; first compound 20 µM
  relative viability: 0.112
[14]; first compound 0.2 µM
  relative viability: 0.153
[14]; first compound 0.6325 µM
  relative viability: 0.139
[14]; first compound 2 µM
  relative viability: 0.168
[14]; first compound 6.325 µM
  relative viability: 0.114
[14]; first compound 20 µM
  relative viability: 0.0061
[15]; first compound 0.2 µM
  relative viability: 0.249
[15]; first compound 2 µM
  relative viability: 0.202
[15]; first compound 6.325 µM
  relative viability: 0.216
[15]; first compound 20 µM
  relative viability: 0.142
[16]; first compound 0.2 µM
  relative viability: 0.317
[16]; first compound 0.6325 µM
  relative viability: 0.289
[16]; first compound 2 µM
  relative viability: 0.367
[16]; first compound 6.325 µM
  relative viability: 0.338
[16]; first compound 20 µM
  relative viability: 0.0905
[17]; first compound 0.2 µM
  relative viability: 0.629
[17]; first compound 0.6325 µM
  relative viability: 0.584
[17]; first compound 6.325 µM
  relative viability: 0.672
[17]; first compound 20 µM
  relative viability: 0.379
[18]; first compound 0.2 µM
  relative viability: 0.261
[18]; first compound 0.6325 µM
  relative viability: 0.188
[18]; first compound 2 µM
  relative viability: 0.207
[18]; first compound 6.325 µM
  relative viability: 0.22
[18]; first compound 20 µM
  relative viability: 0.232
[19]; first compound 0.2 µM
  relative viability: 0.456
[19]; first compound 0.6325 µM
  relative viability: 0.317
[19]; first compound 2 µM
  relative viability: 0.345
[19]; first compound 6.325 µM
  relative viability: 0.0953
[19]; first compound 20 µM
  relative viability: 0.0194
[20]; first compound 0.2 µM
  relative viability: 0.601
[20]; first compound 0.6325 µM
  relative viability: 0.564
[20]; first compound 6.325 µM
  relative viability: 0.559
[20]; first compound 20 µM
  relative viability: 0.0834
